{"source": "ChEMBL document CHEMBL3397008", "about": "“Design, synthesis and evaluation of XZH-5 analogues as STAT3 inhibitors” (Bioorg Med Chem, 2015)", "data": [{"system": "not listed separately", "assay": "Cytotoxicity against human PANC1 cells after 72 hrs by MTT assay", "type": "functional, cell-based", "details": "PANC-1, 72 h", "units": {"IC50": "µM"}, "values": [{"smiles": "COC(=O)[C@H](Cc1cn(C)cn1)NC(=O)[C@H](CC(C)C)NC(=O)Nc1cc(C(F)(F)F)cc(C(F)(F)F)c1", "IC50": 16.8}, {"smiles": "CCn1cnc(C[C@H](NC(=O)[C@@H](NC(=O)Nc2cc(C(F)(F)F)cc(C(F)(F)F)c2)C(C)C)C(=O)OC)c1", "IC50": 11.1}, {"smiles": "COC(=O)[C@H](Cc1cn(C)cn1)NC(=O)[C@@H](NC(=O)Nc1cc(C(F)(F)F)cc(C(F)(F)F)c1)C(C)(C)C", "IC50": 8.8}, {"smiles": "CC[C@H](C)[C@H](NC(=O)Nc1cc(C(F)(F)F)cc(C(F)(F)F)c1)C(=O)N[C@@H](Cc1cn(C)cn1)C(=O)OC", "IC50": 10.1}, {"smiles": "COC(=O)[C@H](Cc1cn(C)cn1)NC(=O)[C@@H](NC(=O)Nc1cccc(C(F)(F)F)c1)C(C)C", "IC50": 61.9}, {"smiles": "COC(=O)[C@H](Cc1cn(C)cn1)NC(=O)[C@H](Cc1ccccc1)NC(=O)Nc1cc(C(F)(F)F)cc(C(F)(F)F)c1", "IC50": 16.1}, {"smiles": "COC(=O)[C@H](Cc1cn(C)cn1)NC(=O)[C@H](Cc1c[nH]c2ccccc12)NC(=O)Nc1cc(C(F)(F)F)cc(C(F)(F)F)c1", "IC50": 31.4}, {"smiles": "C[C@H](NC(=O)Nc1cc(C(F)(F)F)cc(C(F)(F)F)c1)C(=O)N[C@@H](Cc1cn(C)cn1)C(=O)O", "IC50": "> 100"}, {"smiles": "COC(=O)[C@H](Cc1cn(C)cn1)NC(=O)[C@H](C)NC(=O)Nc1cc(C(F)(F)F)cc(C(F)(F)F)c1", "IC50": 50}, {"smiles": "COC(=O)[C@H](Cc1cn(C)cn1)NC(=O)[C@H](CC(=O)OCc1ccccc1)NC(=O)Nc1cc(C(F)(F)F)cc(C(F)(F)F)c1", "IC50": 68.6}, {"smiles": "COC(=O)[C@H](Cc1cn(C)cn1)NC(=O)[C@H](CCC(=O)OCc1ccccc1)NC(=O)Nc1cc(C(F)(F)F)cc(C(F)(F)F)c1", "IC50": 85.5}, {"smiles": "CC(C)[C@H](NC(=O)Nc1cc(C(F)(F)F)cc(C(F)(F)F)c1)C(=O)N[C@@H](Cc1cn(C)cn1)C(=O)O", "IC50": "> 100"}, {"smiles": "COC(=O)[C@H](Cc1cn(C)cn1)NC(=O)[C@@H](NC(=O)Nc1cc(C(F)(F)F)cc(C(F)(F)F)c1)C(C)C", "IC50": 24.7}, {"smiles": "COC(=O)[C@H](Cc1c[nH]cn1)NC(=O)[C@@H](NC(=O)Nc1cc(C(F)(F)F)cc(C(F)(F)F)c1)C(C)C", "IC50": 98.4}]}, {"system": "HPAC", "assay": "Cytotoxicity against human HPAC cells after 72 hrs by MTT assay", "type": "functional, cell-based", "details": "not given", "units": {"IC50": "µM"}, "values": [{"smiles": "COC(=O)[C@H](Cc1cn(C)cn1)NC(=O)[C@H](CC(C)C)NC(=O)Nc1cc(C(F)(F)F)cc(C(F)(F)F)c1", "IC50": 13.2}, {"smiles": "CCn1cnc(C[C@H](NC(=O)[C@@H](NC(=O)Nc2cc(C(F)(F)F)cc(C(F)(F)F)c2)C(C)C)C(=O)OC)c1", "IC50": 9.5}, {"smiles": "COC(=O)[C@H](Cc1cn(C)cn1)NC(=O)[C@@H](NC(=O)Nc1cc(C(F)(F)F)cc(C(F)(F)F)c1)C(C)(C)C", "IC50": 9.8}, {"smiles": "CC[C@H](C)[C@H](NC(=O)Nc1cc(C(F)(F)F)cc(C(F)(F)F)c1)C(=O)N[C@@H](Cc1cn(C)cn1)C(=O)OC", "IC50": 7.6}, {"smiles": "COC(=O)[C@H](Cc1cn(C)cn1)NC(=O)[C@H](Cc1ccccc1)NC(=O)Nc1cc(C(F)(F)F)cc(C(F)(F)F)c1", "IC50": 9.6}, {"smiles": "COC(=O)[C@H](Cc1cn(C)cn1)NC(=O)[C@@H](NC(=O)Nc1cc(C(F)(F)F)cc(C(F)(F)F)c1)C(C)C", "IC50": 17.4}]}, {"system": "MDA-MB-231", "assay": "Cytotoxicity against human MDA-MB-231 cells after 72 hrs by MTT assay", "type": "functional, cell-based", "details": "MDA-MB-231, 72 h", "units": {"IC50": "µM"}, "values": [{"smiles": "COC(=O)[C@H](Cc1cn(C)cn1)NC(=O)[C@H](CC(C)C)NC(=O)Nc1cc(C(F)(F)F)cc(C(F)(F)F)c1", "IC50": 10.6}, {"smiles": "CCn1cnc(C[C@H](NC(=O)[C@@H](NC(=O)Nc2cc(C(F)(F)F)cc(C(F)(F)F)c2)C(C)C)C(=O)OC)c1", "IC50": 7.6}, {"smiles": "COC(=O)[C@H](Cc1cn(C)cn1)NC(=O)[C@@H](NC(=O)Nc1cc(C(F)(F)F)cc(C(F)(F)F)c1)C(C)(C)C", "IC50": 9.4}, {"smiles": "CC[C@H](C)[C@H](NC(=O)Nc1cc(C(F)(F)F)cc(C(F)(F)F)c1)C(=O)N[C@@H](Cc1cn(C)cn1)C(=O)OC", "IC50": 6.5}, {"smiles": "COC(=O)[C@H](Cc1cn(C)cn1)NC(=O)[C@H](Cc1ccccc1)NC(=O)Nc1cc(C(F)(F)F)cc(C(F)(F)F)c1", "IC50": 6.8}, {"smiles": "COC(=O)[C@H](Cc1cn(C)cn1)NC(=O)[C@@H](NC(=O)Nc1cc(C(F)(F)F)cc(C(F)(F)F)c1)C(C)C", "IC50": 15.5}]}, {"system": "SW1990", "assay": "Cytotoxicity against human SW1990 cells after 72 hrs by MTT assay", "type": "functional, cell-based", "details": "SW1990, 72 h", "units": {"IC50": "µM"}, "values": [{"smiles": "COC(=O)[C@H](Cc1cn(C)cn1)NC(=O)[C@H](CC(C)C)NC(=O)Nc1cc(C(F)(F)F)cc(C(F)(F)F)c1", "IC50": 9.1}, {"smiles": "CCn1cnc(C[C@H](NC(=O)[C@@H](NC(=O)Nc2cc(C(F)(F)F)cc(C(F)(F)F)c2)C(C)C)C(=O)OC)c1", "IC50": 9.4}, {"smiles": "COC(=O)[C@H](Cc1cn(C)cn1)NC(=O)[C@@H](NC(=O)Nc1cc(C(F)(F)F)cc(C(F)(F)F)c1)C(C)(C)C", "IC50": 8.5}, {"smiles": "CC[C@H](C)[C@H](NC(=O)Nc1cc(C(F)(F)F)cc(C(F)(F)F)c1)C(=O)N[C@@H](Cc1cn(C)cn1)C(=O)OC", "IC50": 8.3}, {"smiles": "COC(=O)[C@H](Cc1cn(C)cn1)NC(=O)[C@H](Cc1ccccc1)NC(=O)Nc1cc(C(F)(F)F)cc(C(F)(F)F)c1", "IC50": 10.8}, {"smiles": "COC(=O)[C@H](Cc1cn(C)cn1)NC(=O)[C@@H](NC(=O)Nc1cc(C(F)(F)F)cc(C(F)(F)F)c1)C(C)C", "IC50": 17.9}]}]}
